The values that follow come from PMC11493595, “Stretching the structural envelope of imatinib to reduce β-amyloid production by modulating both β- and γ-secretase cleavages of APP” (Frontiers in Chemistry, 2024).

Data set [1] concerns N2a695 cells. The experiment in a line: Aβ38, Aβ40, Aβ42 in conditioned media of N2a695 cells, MSD ELISA. The data set is classed as cell-based. The conditions noted are these: N2a695 cell supernatant, 5 h, single experiment. The protocol:
(§1) N2a695 were cultured in 1:1 OptiMem Reduced Serum Media (Life Technologies): Dulbecco’s Modified Eagle Medium ([+] 4.5 g/L D-glucose [+] L-Glutamine; [−] Sodium pyruvate (Life Technologies) supplemented with 5% fetal bovine serum, 0.4% Penstrep and 0.4% Geneticin and incubated at 37°C in 5% CO2. Antibodies were obtained from The Laboratory of Molecular and Cellular Neuroscience at The Rockefeller University. Human Aβ40 and Aβ42 ELISA plates (Life Technologies) and Plus MSD (Mesoscale Discovery) plates for Aβ Peptide (Aβ38, Aβ40 and Aβ42) Panel 1 (6E10) Kit (Catalog number K15200G) were obtained from Thermo Fisher, Life Technologies and Meso Scale Discovery.
(§2) N2a695 cells were used to screen all new compounds and in the follow-up studies with compounds found active in the preliminary screen. In a typical experiment, 6-well tissue culture plates (Corning) were seeded at 4.0 × 10^5–4.5 × 10^5 N2a695 cells/mL, 2 mL/well for overnight incubation. When cells were >95% confluent, media were exchanged with fresh media containing 10 µM solutions of compounds or DMSO carrier alone and cells were incubated at 37°C in 5% CO2 for 5 h. Culture media were collected and soluble Aβ concentrations in the media were determined by ELISA or MSD plates for human Aβ peptides as per manufacturer instructions. Signals for Aβ were measured using Perkin Elmer Envision and SQ120 MSD ELISA reader. Follow-up studies with N2a695 cells were performed similarly.
Similarly, we evaluated all IMTi-1 and IMTi-2 analogs, including the Boc-protected compounds, using N2a695 cells. […] To further examine the activities of the active analogs and whether IMTi’s has any bias on amyloidogenic vs. nonamyloidogenic cleavage of APP, we retested dozens of IMTi-1 and 2 analogs, including several found active in the screening assay and some tested for the first time using N2a695 cells as above, and performed MSD ELISA of the conditioned media to measure Aβ40, Aβ38, and Aβ42 peptides simultaneously.

Data set [2] deals with β- and γ-cleavages of APP. The experiment in a line: Aβ in N2a cells transiently transfected with APP-FL or APP99 (APP-βCTF): BACE vs γ-secretase cleavage. The settings on record: N2a cells transiently transfected with APP695 (APP-FL) or APP C99, 5 h. The data set is classed as cell-based. As for the experimental part:
To determine effects of compounds on BACE1 vs. GS inhibition, we used N2a cells transiently transfected with full length APP (APP-FL) or with APP99 (APP-βCTF) as described previously ([Netzer et al., 2017]; [Sun et al., 2019]). After 48 h, media were removed and fresh media containing compound 1a and analogs were added. Following 5 h of incubation, cell supernatants were collected, and analyzed using MSD-ELISA for Aβ and sAPPα and western blot for sAPPβ.
We focused on IMTi-1 and its analogs 1d, 1f and 1p. […] To test whether these compounds lower Aβ levels by affecting the BACE and/or γ-secretase cleavages, we transfected wild-type (wt) cells with APP-FL and APP βCTF (C99), respectively, and incubated the cells with IMTi-1 (isomer) and analogs 1d, 1f and 1p. We used BACE inhibitor, MK8931, and γ-secretase inhibitor, DAPT, as controls and performed the experiments and processed the results as described previously ([Sun et al., 2019]).

Data set [3] relates to N2a695 cells. Kind of data set: Aβ38, Aβ40, Aβ42 in conditioned media of N2a695 cells, MSD ELISA. It is filed as cell-based. The conditions noted are these: N2a695 cell supernatant, 5 h, single experiment. The source holds these as a separate data set.
The nature of data set [4]: In vivo brain permeability and retention, LC-MS/MS of brain and plasma. Also noted: species or system C57BL/6J WT mice. The settings on record: for concentration at 4 h: C57BL/6J, mouse, ip, 2 months old WT mice, 50 mg/kg i.p., 4 h after injection, mesylate salt. The protocol: All procedures involving animals were approved by The Rockefeller University Institutional Animal Care and Use Committee and were in accordance with the National Institutes of Health guidelines. […] Mice were euthanized 4 h post drug administration and brain hemispheres and plasma were harvested and collected in pre-weighted tubes and snap-frozen in liquid nitrogen. To measure brain and plasma concentrations of the specific compounds, mouse brain tissue was homogenized and extracted using Ethanol, and plasma samples were extracted using Acetonitrile. Concentration of the drug and metabolites in brain and in plasma was determined by LC-MS/MS analysis.
After tubes were weighed to calculate brain weight and thawed to room temperature, 1 mL of EtOH (200 Proof) was added to the microcentrifuge tubes containing the harvested right brain hemispheres. 10 μL of 1 µM internal standard (ABG190, a synthetic analog of 1a) was added to each tube and samples were sonicated to homogeneity (∼2 min). Tubes were shaken at 40 min at room temperature (1K RPM) and centrifuged for 8 min at 13K RPM. The supernatant (0.9 mL) was transferred to a new collection tube and 0.5 mL EtOH was added to the pellet for a second round of extraction as described above. 600 μL of the supernatant was combined with the first collection before samples were submitted for LCMS-MS analysis ([Sun et al., 2019]).
300 μL of acetonitrile was added to collected blood samples. 10 μL of 1 µM internal standard (ABG190) was added to each tube and samples were sonicated to homogeneity (∼2 min). Tubes were […] at 13 K RPM for 9 min 300 μL of the supernatant was collected and combined with 500 µL of 5 mM ammonium formate before samples were submitted for LCMS-MS analysis ([Sun et al., 2019]).

For data set [5], the system named is N2a695 cells. Kind of data set: Screening of Aβ production in N2a695 cells (Aβ ELISA of cell supernatants). The data set is classed as cell-based. The protocol: as §1, §2
Specifically, we exposed N2a695 cells to increasing concentrations of each compound and measured the production of Aβ38, 40, and 42. […] Remarkably, this occurs for all Aβ peptides tested shorter than 40 amino acids (Figure 2C). Moreover, for some compounds that modulate γ-secretase activity most conspicuously at 5 μM, this effect vanishes at 10 μM, relative to controls (Figure 2B, C). […]

A further data set has as its system BACE1. Also noted: method as in Netzer et al., 2017. The settings on record: two in vitro BACE1 assays, concentrations up to 100 μM; ref Netzer et al., 2017; cited from earlier work.
The target in a further data set is T1, Abl1 kinase (Homo sapiens, UniProt P00519).
T1 sequence (P00519 242-493 limits assumed): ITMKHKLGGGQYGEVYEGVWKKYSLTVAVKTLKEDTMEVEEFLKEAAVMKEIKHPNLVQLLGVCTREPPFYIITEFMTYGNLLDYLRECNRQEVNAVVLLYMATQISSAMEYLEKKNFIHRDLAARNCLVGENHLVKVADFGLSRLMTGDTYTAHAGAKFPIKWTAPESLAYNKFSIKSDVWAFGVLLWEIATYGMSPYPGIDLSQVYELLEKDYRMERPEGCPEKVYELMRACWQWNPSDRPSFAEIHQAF
Kind of data set: In vitro kinase activity assay (split-luciferase, Luceome). The data set is classed as biochemical. The conditions noted are these: read-out: IC50, Abl kinase. As for the experimental part: The assay was performed by Luceome Biotechnologies, LLC. Typically, 10 mM stock solutions of the compounds were diluted in DMSO to a concentration of 250 μM. Prior to initiating the assay, all test compounds were evaluated for false positive against split-luciferase ([Jester et al., 2010]). For kinase assays, each Cfluc-Kinase was translated along with Fos-Nfluc using a cell-free system (rabbit reticulocyte lysate) at 30°C for 90 min 24 μL aliquot of this lysate containing either 1 μL of DMSO (for no-inhibitor control) or compound solution in DMSO (10 μM final concentration) was incubated for 30 min at room temperature followed by 1 h in presence of a kinase specific probe. 80 μL of luciferin assay reagent was added to each solution and luminescence was immediately measured on a luminometer. The percent Inhibition was calculated using the following equation: % Inhibition = (ALUcontrol–ALUsamplex 100)/ALUcontrol.

Counter-ions that a name gives are not always drawn. Like-named read-outs stand apart in the source and are kept apart here.

Turning to `Cc1ccccc1Nc1nccc(-c2cccc(NC(=O)c3ccc(N4CCN(C)CC4)cc3)c2)n1` [Compound 1d], the activity at 10 µM with N2a695 cells [1] (read-out: % Aβ38 of DMSO ctrl) is 22%; in the data set on N2a695 cells [1] (read-out: % Aβ40 of DMSO ctrl), 14%; with N2a695 cells [1] (read-out: % Aβ42 of DMSO ctrl), 11%. Also, the “BACE and γ-secretase cleavage of APP, Aβ levels” value (from here on “BACE and γ-secretase cleavage”) in data set [2] is “lower BACE and γ-secretase cleavage of APP”. Moreover, the activity at 5 µM with N2a695 cells [3] (read-out: % Aβ38 of DMSO ctrl) is 60%; in the data set on N2a695 cells [3] (read-out: % Aβ40 of DMSO ctrl), 34%; with N2a695 cells [3] (read-out: % Aβ42 of DMSO ctrl), 28%.
For `Cc1ccccc1Nc1nccc(-c2cccc(NC(=O)c3ccc(CCN(C)C)cc3)c2)n1` [Compound 1f], the activity at 10 µM in the data set with N2a695 cells [1] (read-out: % Aβ38 of DMSO ctrl) was determined as 80%; in the data set with N2a695 cells [1] (read-out: % Aβ40 of DMSO ctrl), 29%; in the data set on N2a695 cells [1] (read-out: % Aβ42 of DMSO ctrl), 26%. In data set [2], the “BACE and γ-secretase cleavage” value was “lower BACE and γ-secretase cleavage of APP”. Further, the activity at 5 µM with N2a695 cells [3] (read-out: % Aβ38 of DMSO ctrl) worked out at 113%; in the data set with N2a695 cells [3] (read-out: % Aβ40 of DMSO ctrl) it was 52%; with N2a695 cells [3] (read-out: % Aβ42 of DMSO ctrl) it was 45%. In addition, the Brain exposure result in data set [4] (2 months old mice, 4 h post administration) is “high brain exposure”. For the same molecule, the concentration at 4 h came out at 92 ng/g in data set [4] (brain, read-out: Brain concentration) and 550 ng/mL in data set [4] (plasma, read-out: Plasma concentration).
In the case of `Cc1ccccc1Nc1nccc(-c2cccc(NC(=O)c3ccc(CN(CC(C)(C)C)C(=O)OC(C)(C)C)cc3)c2)n1` [Compound 1i-Boc], in the data set with N2a695 cells [5] (10 µM, N2a695 cells), the “Aβ production in the screen (Fig. S1)” value was “increase in Aβ production”.
On the same count and under the same terms, to `Cc1ccccc1Nc1nccc(-c2cccc(NC(=O)c3ccc(CN(C(=O)OC(C)(C)C)C4CCCCC4)cc3)c2)n1` [Compound 1k-Boc] belongs “increase in Aβ production”.
In the case of `CN(C)CCc1ccc(C(=O)Nc2cccc(-c3ccnc(Nc4cccnc4)n3)c2)cc1` [Compound 1p], the activity at 10 µM in the data set with N2a695 cells [1] (read-out: % Aβ38 of DMSO ctrl) was 24%; in the data set with N2a695 cells [1] (read-out: % Aβ40 of DMSO ctrl) it was 18%; with N2a695 cells [1] (read-out: % Aβ42 of DMSO ctrl), 15%. In data set [2], the “BACE and γ-secretase cleavage” value is “lower BACE and γ-secretase cleavage of APP”. Besides, the results for the activity at 5 µM in the data set with N2a695 cells [3] (read-out: % Aβ38 of DMSO ctrl), in the data set on N2a695 cells [3] (read-out: % Aβ40 of DMSO ctrl) and with N2a695 cells [3] (read-out: % Aβ42 of DMSO ctrl) were 58%, 41% and 38%, respectively.
For `Cc1ccc(NC(=O)c2ccc(CN3CCN(C)CC3)cc2)cc1Nc1nccc(-c2cccnc2)n1` [IMT, imatinib mesylate, reference compound], the “Inhibition of BACE1 enzymatic activity” value in the data set with BACE1 is listed as “does not inhibit BACE1 enzymatic activity”. The “Activity in Aβ production assays” value in the data set on N2a695 cells [5] (N2a695 cells) is on record as “active”.
As for `Cc1ccccc1Nc1nccc(-c2cncc(NC(=O)c3ccc(CN4CCN(C)CC4)cc3)c2)n1` [IMTi-1], in data set [2], the “BACE and γ-secretase cleavage” value was “lower BACE and γ-secretase cleavage of APP”. In addition, the “Aβ38 levels relative to controls” value in the data set on N2a695 cells [5] (5 μM, N2a695 cells, ELISA) is recorded as “boost levels of Aβ38 above controls”. The “Reduction of Aβ40 levels compared with IMT” value with N2a695 cells [5] (10 µM, N2a695 cell supernatants, anti-Aβ40 ELISA) is recorded as “reduced Aβ40 levels more strongly than IMT”. Besides, the “Activity in Aβ production assays” value with N2a695 cells [5] (N2a695 cells) is recorded as “active”. Besides, on Abl1 kinase, the IC50 came to 1170 nM.
For `Cc1ccc(Nc2nccc(-c3ccc(CN4CCN(C)CC4)cc3)n2)cc1NC(=O)c1cccnc1` [IMTi-2], the Aβ40 levels in the data set with N2a695 cells [5] (10 µM, N2a695 cells) came out at 68%. Moreover, the “Activity in Aβ production assays” value in the data set with N2a695 cells [5] (N2a695 cells) is recorded as “active”.
In the same order, the values of `Cc1ccc(CN2CCN(Cc3ccc(C(=O)Nc4cccnc4)cc3)CC2)cc1Nc1ncccn1` [IMTi-3] are 93% and “inactive”.
